From patent publication US20240270741A1 (Cogent Biosciences, Inc., priority 2023, published 2024)

The molecules below were run against FGFR2 (Homo sapiens, UniProt P21802) (assay: FGFR wild type enzyme assay (HTRF KinEASE-TK), FGFR2). Conditions: Enz FGFR2 (nM).
FGFR2, sequence (P21802 399-821 limits assumed): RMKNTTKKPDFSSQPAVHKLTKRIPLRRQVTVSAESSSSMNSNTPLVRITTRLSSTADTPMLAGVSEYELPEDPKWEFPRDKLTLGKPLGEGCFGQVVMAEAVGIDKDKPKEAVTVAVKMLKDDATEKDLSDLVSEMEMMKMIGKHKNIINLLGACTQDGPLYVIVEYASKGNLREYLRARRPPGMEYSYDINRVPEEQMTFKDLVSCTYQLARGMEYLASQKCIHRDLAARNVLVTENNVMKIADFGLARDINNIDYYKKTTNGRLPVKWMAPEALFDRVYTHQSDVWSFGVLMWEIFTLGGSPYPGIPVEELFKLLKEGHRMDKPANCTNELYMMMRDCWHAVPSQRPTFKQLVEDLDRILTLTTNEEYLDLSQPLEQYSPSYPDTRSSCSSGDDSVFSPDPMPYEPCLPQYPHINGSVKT

| SMILES | IC50 |
| --- | --- |
| Cc1c(-c2cc(SCCOC(C)C)c3c(C#N)cnn3c2)cnn1[C@H]1CCCNC1 [Example 85, 4-(2-isopropoxyethylsulfanyl)-6-[5-methyl-1-[(3S)-3-piperidyl]pyrazol-4-yl]pyrazolo[1,5-a]pyridine-3-carbonitrile] | 7 nM |
| Cc1c(-c2cc(Sc3ncccc3F)c3c(C#N)cnn3c2)cnn1[C@H]1CCCNC1 [Example 86, 4-[(3-fluoro-2-pyridyl)sulfanyl]-6-[5-methyl-1-[(3S)-3-piperidyl]pyrazol-4-yl]pyrazolo[1,5-a]pyridine-3-carbonitrile] | 2 nM |
| CCSc1cc(-c2cnn([C@H]3CCCN(C[C@H](O)CO)C3)c2)cn2ncc(C#N)c12 [Example 87, 6-[1-[(3S)-1-[(2S)-2,3-dihydroxypropyl]-3-piperidyl]pyrazol-4-yl]-4-ethylsulfanyl-pyrazolo[1,5-a]pyridine-3-carbonitrile] | 1 nM |
| CC(C)Sc1cc(-c2cnn([C@H]3CCCN(C[C@H](O)CO)C3)c2)cn2ncc(C#N)c12 [Example 88, 6-[1-[(3S)-1-[(2S)-2,3-dihydroxypropyl]-3-piperidyl]pyrazol-4-yl]-4-isopropylsulfanyl-pyrazolo[1,5-a]pyridine-3-carbonitrile] | 1 nM |
| CC(C)Sc1cc(-c2cnn([C@H]3CCCN(CCO)C3)c2)cn2ncc(C#N)c12 [Example 89, 6-[1-[(3S)-1-(2-hydroxyethyl)-3-piperidyl]pyrazol-4-yl]-4-isopropylsulfanyl-pyrazolo[1,5-a]pyridine-3-carbonitrile] | 1 nM |
| N#Cc1cnn2cc(-c3cnn(C4CCN(CCO)CC4)c3)cc(Sc3ccccn3)c12 [Example 90, 6-[1-[1-(2-hydroxyethyl)-4-piperidyl]pyrazol-4-yl]-4-(2-pyridylsulfanyl)pyrazolo[1,5-a]pyridine-3-carbonitrile] | 2 nM |
| N#Cc1cnn2cc(-c3cnn([C@H]4CCCN(CCO)C4)c3)cc(Sc3ccccn3)c12 [Example 91, 6-[1-[(3S)-1-(2-hydroxyethyl)-3-piperidyl]pyrazol-4-yl]-4-(2-pyridylsulfanyl)pyrazolo[1,5-a]pyridine-3-carbonitrile] | 2 nM |
| CC(C)N1CCC(n2cc(-c3cc(Sc4ccccn4)c4c(C#N)cnn4c3)cn2)CC1 [Example 92, 6-[1-(1-isopropyl-4-piperidyl)pyrazol-4-yl]-4-(2-pyridylsulfanyl)pyrazolo[1,5-a]pyridine-3-carbonitrile] | 3 nM |
| CC(=O)N1CCC(n2cc(-c3cc(Sc4ccccn4)c4c(C#N)cnn4c3)cn2)CC1 [Example 93, 6-[1-(1-acetyl-4-piperidyl)pyrazol-4-yl]-4-(2-pyridylsulfanyl)pyrazolo [1,5-a]pyridine-3-carbonitrile] | 3 nM |
| CN1CCC[C@H]1C(=O)N1CCC(n2cc(-c3cc(Sc4ccccn4)c4c(C#N)cnn4c3)cn2)CC1 [Example 94, 6-[1-[1-[(2S)-1-methylpyrrolidine-2-carbonyl]-4-piperidyl]pyrazol-4-yl]-4-(2-pyridylsulfanyl) pyrazolo[1,5-a]pyridine-3-carbonitrile] | 2 nM |
| N#Cc1cnn2cc(-c3ccc(N4CCCC4)nc3)cc(Sc3ccccn3)c12 [Example 95, 4-(2-pyridylsulfanyl)-6-(6-pyrrolidin-1-yl-3-pyridyl)pyrazolo[1,5-a]pyridine-3-carbonitrile] | 13 nM |
| N#Cc1cnn2cc(-c3ccc(OCCN4CCOCC4)nc3)cc(Sc3ccccn3)c12 [Example 96, 6-[6-(2-morpholinoethoxy)-3-pyridyl]-4-(2-pyridylsulfanyl) pyrazolo[1,5-a]pyridine-3-carbonitrile] | 82 nM |
| N#Cc1cnn2cc(-c3cnn([C@H]4CCN(CCO)C4)c3)cc(Sc3ccccn3)c12 [Example 97, (S)-6-(1-(1-(2-hydroxyethyl)pyrrolidin-3-yl)-1H-pyrazol-4-yl)-4-(pyridin-2-ylthio)pyrazolo[1,5-a]pyridine-3-carbonitrile] | 4 nM |
| Cc1c(-c2cc(Sc3ccccn3)c3c(C#N)cnn3c2)cnn1C1CCN(C(=O)CO)CC1 [Example 98, 6-(1-(1-(2-hydroxyacetyl)piperidin-4-yl)-5-methyl-1H-pyrazol-4-yl)-4-(pyridin-2-ylthio)pyrazolo[1,5-a]pyridine-3-carbonitrile] | 7 nM |
| Cc1c(-c2cc(Sc3ccccn3)c3c(C#N)cnn3c2)cnn1C1CCN(C(=O)[C@@H]2CCCN2C)CC1 [Example 99, 6-(5-methyl-1-(1-(methyl-L-prolyl)piperidin-4-yl)-1H-pyrazol-4-yl)-4-(pyridin-2-ylthio)pyrazolo[1,5-a]pyridine-3-carbonitrile] | 5 nM |
| Cc1c(-c2cc(Sc3ccccn3)c3c(C#N)cnn3c2)cnn1C1CCN(CCO)CC1 [Example 100, 6-(1-(1-(2-hydroxyethyl)piperidin-4-yl)-5-methyl-1H-pyrazol-4-yl)-4-(pyridin-2-ylthio)pyrazolo[1,5-a]pyridine-3-carbonitrile] | 5 nM |
| Cc1c(-c2cc(Sc3ncccc3F)c3c(C#N)cnn3c2)cnn1C1CCNCC1 [Example 101, 4-[(3-fluoro-2-pyridyl)sulfanyl]-6-[5-methyl-1-(4-piperidyl)pyrazol-4-yl] pyrazolo[1,5-a]pyridine-3-carbonitrile] | 2 nM |
| Cc1c(-c2cc(Sc3ncccc3F)c3c(C#N)cnn3c2)cnn1[C@@H]1CCCNC1 [Example 102, 4-[(3-fluoro-2-pyridyl)sulfanyl]-6-[5-methyl-1-[(3R)-3-piperidyl]pyrazol-4-yl]pyrazolo[1,5-a]pyridine-3-carbonitrile] | 6 nM |
| Cc1c(-c2cc(Sc3ncccc3F)c3c(C#N)cnn3c2)cnn1[C@H]1CCNC1 [Example 103] | 4 nM |
| Cc1c(-c2cc(Sc3ccccc3C#N)c3c(C#N)cnn3c2)cnn1C1CCNCC1 [Example 104] | 1 nM |
| Cc1c(-c2cc(Sc3ccccc3C#N)c3c(C#N)cnn3c2)cnn1[C@H]1CCCNC1 [Example 105, 4-(2-cyanophenyl)sulfanyl-6-[5-methyl-1-[(3S)-3-piperidyl]pyrazol-4-yl]pyrazolo[1,5-a]pyridine-3-carbonitrile] | 1 nM |
| Cc1c(-c2cc(Sc3ccccc3C#N)c3c(C#N)cnn3c2)cnn1[C@@H]1CCNC1 [Example 106, 4-(2-cyanophenyl) sulfanyl-6-[5-methyl-1-[(3R)-pyrrolidin-3-yl]pyrazol-4-yl]pyrazolo[1,5-a]pyridine-3-carbonitrile] | 2 nM |
| Cc1c(-c2cc(Sc3ncccc3F)c3c(C#N)cnn3c2)cnn1C1CCN(C)CC1 [Example 107, 4-[(3-fluoro-2-pyridyl)sulfanyl]-6-[5-methyl-1-(1-methyl-4-piperidyl)pyrazol-4-yl]pyrazolo[1,5-a]pyridine3-carbonitrile] | 1 nM |

Results, then the molecule that gave them:

| IC50 | SMILES |
| --- | --- |
| 2 nM | Cc1c(-c2cc(Sc3ncccc3F)c3c(C#N)cnn3c2)cnn1C1CCN(CCO)CC1 [Example 108, 4-[(3-fluoro-2-pyridyl)sulfanyl]-6-[5-methyl-1-(1-methyl-4-piperidyl)pyrazol-4-yl]pyrazolo[1,5-a]pyridine3-carbonitrilee] |
| 2 nM | COCCN1CCC(n2ncc(-c3cc(Sc4ncccc4F)c4c(C#N)cnn4c3)c2C)CC1 [Example 109, 4-[(3-fluoro-2-pyridyl)sulfanyl]-6-[1-[1-(2-methoxyethyl)-4-piperidyl]-5-methyl-pyrazol-4-yl]pyrazolo[1,5-a]pyridine-3-carbonitrile] |
| 3 nM | Cc1c(-c2cc(Sc3ncc(F)cc3F)c3c(C#N)cnn3c2)cnn1C1CCNCC1 [Example 110, 4-[(3,5-difluoro-2-pyridyl)sulfanyl]-6-[5-methyl-1-(4-piperidyl)pyrazol-4-yl]pyrazolo[1,5-a]pyridine-3-carbonitrile] |
| 3 nM | Cc1ccc(F)c(Sc2cc(-c3cnn(C4CCN(C)CC4)c3C)cn3ncc(C#N)c23)n1 [Example 111, 4-[(3-fluoro-6-methyl-2-pyridyl)sulfanyl]-6-[5-methyl-1-(1-methyl-4-piperidyl)pyrazol-4-yl]pyrazolo[1,5-a]pyridine-3-carbonitrile] |
| 2 nM | Cc1c(-c2cc(Sc3ccccc3C#N)c3c(C#N)cnn3c2)cnn1[C@@H]1CCCNC1 [Example 112, 4-(2-cyanophenyl)sulfanyl-6-[5-methyl-1-[(3R)-3-piperidyl]pyrazol-4-yl]pyrazolo[1,5-a]pyridine-3-carbonitrile] |
| 1 nM | Cc1c(-c2cc(Sc3ncccc3F)c3c(C#N)cnn3c2)cnn1[C@H]1CC[C@@H](N(C)C)CC1 [Example 113] |
| 3 nM | Cc1nc(Sc2cc(-c3cnn(C4CCNCC4)c3C)cn3ncc(C#N)c23)ccc1F [Example 114, 4-[(5-fluoro-6-methyl-2-pyridyl)sulfanyl]-6-[5-methyl-1-(4-piperidyl)pyrazol-4-yl]pyrazolo[1,5-a]pyridine-3-carbonitrile] |
| 1 nM | Cc1nc(Sc2cc(-c3cnn(C4CCNCC4)c3C)cn3ncc(C#N)c23)ccc1Cl [Example 115, 4-[(5-chloro-6-methyl-2-pyridyl)sulfanyl]-6-[5-methyl-1-(4-piperidyl)pyrazol-4-yl]pyrazolo[1,5-a]pyridine-3-carbonitrile] |
| 45 nM | Cc1cc(Sc2cc(-c3cnn(C4CCNCC4)c3C)cn3ncc(C#N)c23)c(F)cn1 [Example 116, -[(5-fluoro-2-methyl-4-pyridyl)sulfanyl]-6-[5-methyl-1-(4-piperidyl)pyrazol-4-yl]pyrazolo[1,5-a]pyridine-3-carbonitrile] |
| 1 nM | Cc1c(-c2cc(Sc3ccccc3F)c3c(C#N)cnn3c2)cnn1C1CCNCC1 [Example 118, 4-(2-fluorophenyl)sulfanyl-6-[5-methyl-1-(4-piperidyl)pyrazol-4-yl]pyrazolo[1,5-a]pyridine-3-carbonitrile] |
| 1 nM | Cc1c(-c2cc(Sc3c(F)cccc3C#N)c3c(C#N)cnn3c2)cnn1C1CCN(C)CC1 [Example 119] |
| 1 nM | Cc1c(-c2cc(Sc3cccn4cncc34)c3c(C#N)cnn3c2)cnn1C1CCN(C)CC1 [Example 120, 4-imidazo[1,5-a]pyridin-8-ylsulfany1-6-[5-methyl-1-(1-methyl-4-piperidyl)pyrazol-4-yl]pyrazolo[1,5-a]pyridine-3-carbonitrile] |
| 99 nM | Cc1nccc(Sc2cc(-c3cnn(C4CCNCC4)c3C)cn3ncc(C#N)c23)c1F [Example 121] |
